In series [1] the target is T1, progesterone receptor (PR) (Homo sapiens, UniProt P06401).
T1 construct: alkaline phosphatase assay with the T47D human breast cancer cell line; endogenous in cells; host or cells: T47D
T1 sequence (P06401 1-933): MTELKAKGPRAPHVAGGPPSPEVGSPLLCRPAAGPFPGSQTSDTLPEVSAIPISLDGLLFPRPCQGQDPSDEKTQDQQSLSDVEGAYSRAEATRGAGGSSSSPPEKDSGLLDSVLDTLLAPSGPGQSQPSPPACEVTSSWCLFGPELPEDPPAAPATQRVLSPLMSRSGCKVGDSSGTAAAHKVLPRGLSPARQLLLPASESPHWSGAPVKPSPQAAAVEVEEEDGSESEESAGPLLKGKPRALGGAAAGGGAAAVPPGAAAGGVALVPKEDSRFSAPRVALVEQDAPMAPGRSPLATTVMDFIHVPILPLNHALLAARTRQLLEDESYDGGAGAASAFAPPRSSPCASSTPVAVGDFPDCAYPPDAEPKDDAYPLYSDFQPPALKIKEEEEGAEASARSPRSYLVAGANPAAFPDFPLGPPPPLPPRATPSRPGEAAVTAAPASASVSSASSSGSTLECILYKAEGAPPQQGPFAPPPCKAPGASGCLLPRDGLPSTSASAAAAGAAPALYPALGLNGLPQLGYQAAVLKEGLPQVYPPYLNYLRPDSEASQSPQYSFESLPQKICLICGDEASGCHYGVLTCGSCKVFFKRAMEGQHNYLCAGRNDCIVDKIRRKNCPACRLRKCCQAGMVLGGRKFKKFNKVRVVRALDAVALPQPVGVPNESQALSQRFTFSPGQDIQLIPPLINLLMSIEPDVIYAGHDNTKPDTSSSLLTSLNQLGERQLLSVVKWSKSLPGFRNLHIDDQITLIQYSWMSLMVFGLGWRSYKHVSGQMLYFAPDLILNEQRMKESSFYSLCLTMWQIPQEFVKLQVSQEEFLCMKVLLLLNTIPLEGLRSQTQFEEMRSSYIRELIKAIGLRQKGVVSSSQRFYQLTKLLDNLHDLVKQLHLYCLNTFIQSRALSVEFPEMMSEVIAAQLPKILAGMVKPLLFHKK
Briefly: T47D alkaline phosphatase assay, PR antagonistic activity in the presence of 1 nM P4. The format is cell-based. The note with it: for IC50: T47D cells, 1.0 nM P4, 48 h, mean ± SD from three independent experiments. The method, then:
The PR agonistic and antagonistic activities of the synthesized phosphine–borane derivatives were evaluated using an alkaline phosphatase assay with the T47D human breast cancer cell line. […] The basal alkaline phosphatase activity was also not affected by the tested compounds alone. […] The PR antagonistic activities of the compounds were assessed in the presence of 1 nM of P4 (5). We also calculated the molecular volume of each compound to investigate the structure–activity relationship (SAR). Table 2 summarizes the PR antagonistic activity and calculated volumes of the synthesized compounds. […] We investigated the binding affinity of the compounds toward the PR ligand-binding domain (LBD) using a fluorescence polarization assay system. […] We also investigated the activity of compounds 28 and 34 toward the androgen receptor (AR) by means of cell-proliferation promoting/inhibitory activity toward androgen-dependent SC-3 cells. […].
T47D alkaline phosphatase assays were performed as previously described, with minor modifications. Briefly, the human breast cancer cell line T47D (HMS LINCS database Accession Numbers: 50541) was routinely cultivated in RPMI 1640 medium with 10% FBS at 37 °C in a 5% CO2 humidified incubator. The cells were plated in 96-well plates and incubated overnight in a 5% CO2 humidified incubator at 37 °C. The next day, the cells were treated with a fresh medium containing the test compound in the presence of 1 nM of progesterone and further incubated for 48 h. The medium was aspirated, and the cells were fixed with 100 μL of 1.8% formalin–PBS. The fixed cells were washed with PBS, and 100 μL of an assay buffer (1 mg/mL p-nitrophenol phosphate in diethanolamine water solution, pH 9.0) was added. The mixture was incubated at room temperature for 2 h under light-shielded conditions. The absorbance was measured at 405 nm using a DTX 880 Multimode Detector (Beckman Coulter, Brea, CA, USA). All data points were measured in triplicate, and IC50 values were calculated from three independent experiments.

Series [2] in a line: LogP (1-octanol/water partition coefficient) determined using HPLC. The series is classed as physicochemical. As to conditions: HPLC (OECD guideline), C18 column, methanol–water 75% (v/v), 40 °C, mean of triplicate. The method, then: Hydrophobicity is a key determinant of the activity and pharmacokinetics of biologically active compounds, and the octanol–water partition coefficient (P) and logarithm value (LogP) are widely used hydrophobicity parameters. The LogP values of the synthesized compounds were determined using HPLC [45, 46]. Table 1 summarizes the experimentally determined LogP values and calculated values. […] From the viewpoint of the phosphine structure, an increase in the number of carbon atoms increased hydrophobicity in a predictable manner.
The 1-octanol/water partition coefficient P was determined using HPLC based on the OECD Guideline for Testing Chemicals. A COSMOSIL Packed Column 5C18-MS-II (5 μm, 150 mm × 4.6 mm id, Nacalai Tesque, Inc., Kyoto, Japan) was fitted on an HPLC instrument (Multiwavelength Detector, MD-2010 Plus. JASCO, Tokyo, Japan) equipped with a pump (PU-2080, JASCO) and an oven (SSC-2120, Senshu Scientific Co., Ltd., Tokyo, Japan). The injection volume was 20 µL; the mobile phase was methanol–water 75% (v/v); and the flow rate was 1.0 mL/min in all cases. Compounds were detected by measuring the UV absorption at 240 nm. The temperature of the column was kept at 40.0 (± 0.1) °C during the measurement. The measurement was performed in triplicate, and the mean value was calculated. The dead time t0 was measured with thiourea as the unretained compound, and the capacity factor k was calculated using the equation logk = log (tr − t0/t0), where tr represents the retention time of the compound. A calibration graph was determined experimentally using reference compounds (4-methylphenol, 4-chlorophenol, 4-phenylphenol, diphenylether, fluoranthene, and dichlorodiphenyltrichloroethane) with known logP values. The LogP values of phosphine–boranes were calculated based on a calibration graph (LogP = 2.6269 logkw + 3.059, R^2 = 0.9915).

Structures are written as SMILES.

As usually defined, the IC50 is the concentration that gives 50% inhibition. As a reminder, the chromatographic logP is a lipophilicity value derived from retention on a column. Higher therefore signals a more lipophilic compound.

In the case of `C[P+](C)(C)[BH2-]c1ccc(C(F)(F)F)cc1` [Compound 28, B-4-(Trifluoromethyl)phenyl Trimethylphosphine–Borane], in series [1], the IC50 is over 10000 nM. This compound had a chromatographic logP in series [2] of 3.65.

On to `FC(F)(F)c1ccc([BH2-][P+](C2CC2)(C2CC2)C2CC2)cc1` [Compound 34, B-4-(Trifluoromethyl)phenyl Tricyclopropylphosphine–Borane], for which the “potency relative to triisopropylphosphine derivative 32” value in series [1] (T47D alkaline phosphatase assay, comparison of IC50) is “approximately three times more potent”. For the same compound, in series [1], the half-inhibitory concentration (IC50) stood at 540 ± 90 nM. The compound also showed a chromatographic logP in series [2] of 5.32.

For the origin of these results see publication PMC11013038, “Design, Synthesis, and Evaluation of B-(Trifluoromethyl)phenyl Phosphine–Borane Derivatives as Novel Progesterone Receptor Antagonists” (Molecules, 2024).
